Consider two molecules from patent US20260191968A1, “PROTAC DEGRADERS OF MLLT1 AND/OR MLLT3” (DARK BLUE THERAPEUTICS LTD, priority 2024, published 2026).

Where two headings read alike, the source gives them in different places.

Assay type in all cases: cell-based
Experiment [1] deals with T1, MLLT1 (Homo sapiens, UniProt Q03111).
T1 construct: host or cells: MV4-11
T1 sequence (Q03111 1-559): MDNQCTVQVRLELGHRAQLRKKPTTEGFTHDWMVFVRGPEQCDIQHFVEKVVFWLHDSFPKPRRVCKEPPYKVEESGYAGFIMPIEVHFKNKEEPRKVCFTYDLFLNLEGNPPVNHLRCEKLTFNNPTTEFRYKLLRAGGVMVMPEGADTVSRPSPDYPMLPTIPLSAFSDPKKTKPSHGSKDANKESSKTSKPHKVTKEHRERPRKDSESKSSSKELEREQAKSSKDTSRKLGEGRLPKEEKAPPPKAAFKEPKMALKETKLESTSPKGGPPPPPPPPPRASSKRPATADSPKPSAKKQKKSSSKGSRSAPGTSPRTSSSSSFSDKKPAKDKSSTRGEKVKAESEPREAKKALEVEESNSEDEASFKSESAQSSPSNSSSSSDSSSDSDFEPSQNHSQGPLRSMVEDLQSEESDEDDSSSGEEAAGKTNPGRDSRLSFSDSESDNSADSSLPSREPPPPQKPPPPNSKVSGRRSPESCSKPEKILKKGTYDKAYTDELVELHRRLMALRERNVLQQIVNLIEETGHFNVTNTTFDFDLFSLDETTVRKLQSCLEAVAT
The experiment in a line: MLLT1 DC50 and Dmax determination in MV4-11 cells (JESS), dose response, 4 h. The note with it: MLLT1 degradation; for Dmax: maximum % degradation observed. How it is done: MLLT1 degradation efficacy of compounds was tested in an automated chemiluminescent detection system (JESS, Cat #004-650). MV4-11 (#CRL-9591, ATCC) were seeded at a density of 1.2 million cells/well in a non-treated 6-well cell culture plate in 2.4 mL of complete medium (IMDM+10% FBS+1X Penicillin-Streptomycin). 10 mM DMSO stocks were prepared, and cells were treated with eight concentrations of test compounds, starting from 100 nM, 5-fold dilution, at a final DMSO concentration of 0.1% and incubated for 4 h at 37° C., 5% CO2. Post incubation, cells were centrifuged, washed with HBSS and lysed in 60 μL of RIPA buffer supplemented with Protease inhibitors (sc-24948; Santa Cruz). Protein estimation was done using BCA protein assay kit (23228; Pierce). 4 μg protein lysate (4 μL of 1 μg/μL lysate) was loaded into each well of the JESS cartridge (SM-W004; Bio-techne) and the JESS run was performed using 1:900 dilution of anti-human MLLT1 antibody (ABE2596; Merck) and 1:1200 dilution of anti-human GAPDH antibody (2118; Cell signaling technology) with anti-rabbit secondary detection module (DM-001; Bio-Techne). Post run, data was analysed using “Compass for SW” software for chemiluminescent detection. Peak fit was done using “dropped lines” method. Peak area for MLLT1 and GAPDH was used for the calculation of MLLT1 degradation with respect to DMSO control. Data was shown as “% degradation”. % Degradation was plotted against the respective doses (test compound concentration) and dose-response curve (DRC) was generated using four-parameter logistic equation (non-linear regression). Following parameters for each DRC was captured: DC50 (concentration in nM at which degradation is 50%, interpolated from standard curve and transformed to linear scale), Dmax (maximum % degradation observed). DC50 and Dmax data are captured in Table 9 for Example 8 and Example 234, which is a comparative example.

For the next experiment, the system named is MV4-11 cells. The experiment in a line: MV4-11 cellular proliferative assay, Assay Format B (CTG 2.0, 168 h). The note with it: Homo sapiens. The gist of the method: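 Viability read by CellTiter-Glo 2.0 luminescence after 7-day (168 h) compound exposure of MV4-11 cells in IMDM/10% FBS. Ten 3-fold concentrations starting at 1 uM or 100 nM, 0.3% final DMSO; curves normalised to DMSO control, four-parameter fit.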

The target in experiment [2] is T1, MLLT1. Description: MLLT1 degradation assay in MV4-11 cells (JESS chemiluminescent detection), three concentrations, 24 h. The note with it: with respect to DMSO control. Summed up: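 Read-out is % MLLT1 degradation versus DMSO, from band peak areas on a JESS chemiluminescent system. Cells (MV4-11) were exposed for 24 h at 37° C to three compound levels, 10, 100 and 1000 nM, in 0.1% DMSO.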

Setting [3] is: Assay Method B, read-out: MV4-11 Antiproliferation IC50.

Take `O=C1CCC(N2Cc3c(C#CCCCCc4ccc(C(=O)Nc5cc6[nH]c(CN7CCCC7)cc6cn5)cc4)cccc3C2=O)C(=O)N1` (stereo not shown) [Example 234, 4-(6-(2-(2,6-dioxopiperidin-3-yl)-1-oxoisoindolin-4-yl)hex-5-yn-1-yl)-N-(2-(pyrrolidin-1-ylmethyl)-1H-pyrrolo[3,2-c]pyridin-6-yl)benzamide]: on MLLT1 [1], the DC50 was 6.4 nM and the Dmax came to 60%. Also, the IC50 in the experiment with MV4-11 cells (setting [3]) is above 1000 nM.
As to `CN1CCC[C@@H]1c1cc2cnc(NC(=O)c3ccc(CCCCC#Cc4cccc5c4CN(C4CCC(=O)NC4=O)C5=O)cc3)cc2[nH]1` (mixture of isomers) [Example 8, 4-(6-(2-(2,6-dioxopiperidin-3-yl)-1-oxoisoindolin-4-yl)hex-5-yn-1-yl)-N-(2-((R)-1-methylpyrrolidin-2-yl)-1H-pyrrolo[3,2-c]pyridin-6-yl)benzamide], the “MLLT1% Degradation @ 0.01 μM” value on MLLT1 [2] (0.01 μM) is on record as “A (Category A: A ≥ 75% degradation)”. In addition, the “MLLT1% Degradation @ 0.1 μM” value on MLLT1 [2] (0.1 μM) is reported as “A (Category A: A ≥ 75% degradation)”. Further, at MLLT1 [2] (1 μM), the “MLLT1% Degradation @ 1 μM” value is recorded as “A (Category A: A ≥ 75% degradation)”. On MLLT1 [1], this molecule returned a DC50 of 0.4 nM and a Dmax of 87%. Also, the IC50 in the experiment on MV4-11 cells (168 h (7 days), CTG 2.0, read-out: IC50 (MV4-11 cellular proliferative assay, Assay format B)) is at most 100 nM. In the experiment with MV4-11 cells (setting [3]), the IC50 was determined as 1.5 nM.

Usually DC50 stands for the midpoint of the concentration-degradation curve. A word on the Dmax: it is the largest share of the target that was removed.
